Values of other authors, collected in patent US11771661B2, “Method of treating post-traumatic stress disorder” (ICAHN SCHOOL OF MEDICINE AT MOUNT SINAI, priority 2013, dated 2023).

What was measured:
[1] = molecular target: NMDA receptors; details: read-out: Ki, binding to NMDA receptors; cited from earlier work
[2] = tested on: intractable central neuropathic pain; details: in vivo; cited from earlier work

Compound | Ki [1] | potency compared with racemic mixture of ketamine [2]
CN[C@@]1(c2ccccc2Cl)CCCCC1=O [R(−)] | 1.1 µM | –
CN[C@]1(c2ccccc2Cl)CCCCC1=O [S(+)-ketamine] | 3.2 µM | two times more potent
